We go through 13 compounds from US20240024302A1, “SOLUBLE EPOXIDE HYDROLASE (sEH) INHIBITORS AND DUAL COX/sEH INHIBITORS FOR THE TREATMENT OF ARRHYTHMOGENIC CARDIOMYOPATHY” (BETH ISRAEL DEACONESS MEDICAL CENTER, INC., priority 2020, published 2024).

One series can be described thus: Rat PK, single oral gavage. Type of series: in vivo. The following applies: rat, in vivo, single dose 0.1 mg/kg.
`O=C(Nc1ccc(OC(F)(F)F)cc1)NC1CCN(C(=O)C2CCOCC2)CC1`: the peak level (Cmax) was 23 ± 1 nM and the Tmax was 4.4 ± 0.2 h.

On to `Cc1occc1C(=O)N1CCC(NC(=O)Nc2ccc(OC(F)(F)F)cc2)CC1`, for which the Cmax was 133 ± 4 nM and the Tmax was determined as 2.3 ± 0.4 h.

Consider `O=C(Nc1ccc(C(F)(F)F)cc1)NC1CCN(C(=O)C2CCOCC2)CC1`, for which the highest level (Cmax) was 54 ± 3 nM and the Tmax was found to be 2.5 ± 0.2 h.

Consider `O=C(Nc1ccc(C(F)(F)F)cc1)NC1CCN(C(=O)c2ccoc2)CC1`, for which the peak level (Cmax) was 308 ± 16 nM and the Tmax amounted to 3.4 ± 0.3 h.

As to `CC(C)C(=O)N1CCC(NC(=O)Nc2ccc(OC(F)(F)F)c(F)c2)CC1`, the Cmax is 84 ± 5 nM and the Tmax turned out to be 2.8 ± 0.3 h.

As for `CC(C)C(=O)N1CCC(NC(=O)Nc2ccc(C(F)(F)F)c(F)c2)CC1`, the highest level (Cmax) was 38 ± 3 nM and the Tmax is 1.8 ± 0.2 h.

Consider `CC(C)C(=O)N1CCC(CC(=O)Nc2ccc(OC(F)(F)F)c(F)c2)CC1`, for which the Cmax amounted to 17 ± 2 nM and the time of peak concentration (Tmax) was found to be 1.6 ± 0.1 h.

Take `O=C(Nc1ccc(OC(F)(F)F)c(F)c1)NC1CCN(C(=O)[C@@H]2CCOC2)CC1`: the peak level (Cmax) was 84 ± 6 nM and the Tmax was found to be 2.9 ± 0.3 h.

As for `O=C(Nc1ccc(OC(F)(F)F)c(F)c1)NC1CCN(C(=O)C2CCCOC2)CC1` (stereo not shown), the Cmax was found to be 43 ± 3 nM and the Tmax is 2.6 ± 0.2 h.

As for `O=C(Nc1ccc(OC(F)(F)F)c(F)c1)NC1CCN(C(=O)C2CCOCC2)CC1`, the highest level (Cmax) was 103 ± 8 nM and the Tmax stood at 3.1 ± 0.2 h.

For `O=C(Nc1ccc(OC(F)(F)F)c(F)c1)NC1CCN(C(=O)C2(C(F)(F)F)CC2)CC1`, the highest level (Cmax) was 41 ± 3 nM and the Tmax was 4.3 ± 0.4 h.

As for `CC[C@H](C)C(=O)N1CCC(NC(=O)Nc2ccc(OC(F)(F)F)c(OC(F)(F)F)c2)CC1`, the highest level (Cmax) was 11 ± 1 nM and the Tmax was found to be 2.5 ± 0.2 h.

For `CC[C@H](C)C(=O)N1CCC(CC(=O)Nc2ccc(OC(F)(F)F)c(F)c2)CC1`, the highest level (Cmax) was 3.6 ± 0.6 nM and the time to peak (Tmax) was 1.4 ± 0.1 h.

The series is the same for the next values; noted with them: rat, in vivo, single dose 0.1 mg/kg, PEG 300.
For the compound `O=C(Nc1ccc(OC(F)(F)F)cc1)NC1CCN(C(=O)C2CCOCC2)CC1`, the AUC is 0.234 ± 0.019 µM·h.

On to `Cc1occc1C(=O)N1CCC(NC(=O)Nc2ccc(OC(F)(F)F)cc2)CC1`, for which the exposure (AUC) was 1.08 ± 0.089 µM·h.

In the case of `O=C(Nc1ccc(C(F)(F)F)cc1)NC1CCN(C(=O)C2CCOCC2)CC1`, the AUC was 0.391 ± 0.031 µM·h.

In turn, `O=C(Nc1ccc(C(F)(F)F)cc1)NC1CCN(C(=O)c2ccoc2)CC1` yielded an AUC of 3.55 ± 0.271 µM·h.

In the case of `CC(C)C(=O)N1CCC(NC(=O)Nc2ccc(OC(F)(F)F)c(F)c2)CC1`, the AUC turned out to be 0.637 ± 0.085 µM·h.

The compound `CC(C)C(=O)N1CCC(NC(=O)Nc2ccc(C(F)(F)F)c(F)c2)CC1` showed an AUC of 0.212 ± 0.022 µM·h.

Compound `CC(C)C(=O)N1CCC(CC(=O)Nc2ccc(OC(F)(F)F)c(F)c2)CC1` returned an AUC of 0.066 ± 0.011 µM·h.

`O=C(Nc1ccc(OC(F)(F)F)c(F)c1)NC1CCN(C(=O)[C@@H]2CCOC2)CC1`: the AUC worked out at 0.869 ± 0.127 µM·h. Compared with the last compound, the AUC is about 13-fold higher.

In turn, `O=C(Nc1ccc(OC(F)(F)F)c(F)c1)NC1CCN(C(=O)C2CCCOC2)CC1` (stereo not shown) registered an AUC of 0.328 ± 0.018 µM·h.

For `O=C(Nc1ccc(OC(F)(F)F)c(F)c1)NC1CCN(C(=O)C2CCOCC2)CC1`, the exposure (AUC) is 1.24 ± 0.063 µM·h.

Turning to `O=C(Nc1ccc(OC(F)(F)F)c(F)c1)NC1CCN(C(=O)C2(C(F)(F)F)CC2)CC1`, the AUC stood at 0.486 ± 0.087 µM·h.

Compound `CC[C@H](C)C(=O)N1CCC(NC(=O)Nc2ccc(OC(F)(F)F)c(OC(F)(F)F)c2)CC1` yielded an AUC of 0.075 ± 0.006 µM·h.

In turn, `CC[C@H](C)C(=O)N1CCC(CC(=O)Nc2ccc(OC(F)(F)F)c(F)c2)CC1` showed an AUC of 0.016 ± 0.001 µM·h.

Still in this series, the particulars now being: rat, in vivo, single dose 0.1 mg/kg, read-out: Rat T1/2 (converted).
With `O=C(Nc1ccc(OC(F)(F)F)cc1)NC1CCN(C(=O)C2CCOCC2)CC1`, the half-life is 222 ± 36 min.

Take `Cc1occc1C(=O)N1CCC(NC(=O)Nc2ccc(OC(F)(F)F)cc2)CC1`: the half-life was 360 ± 42 min.

As to `O=C(Nc1ccc(C(F)(F)F)cc1)NC1CCN(C(=O)C2CCOCC2)CC1`, the half-life is 180 ± 24 min.

For `O=C(Nc1ccc(C(F)(F)F)cc1)NC1CCN(C(=O)c2ccoc2)CC1`, the half-life is 264 ± 24 min.

For `CC(C)C(=O)N1CCC(NC(=O)Nc2ccc(OC(F)(F)F)c(F)c2)CC1`, the half-life was 162 ± 24 min.

`CC(C)C(=O)N1CCC(NC(=O)Nc2ccc(C(F)(F)F)c(F)c2)CC1`: the half-life was 144 ± 18 min.

With `CC(C)C(=O)N1CCC(CC(=O)Nc2ccc(OC(F)(F)F)c(F)c2)CC1`, the half-life was 72 ± 12 min.

For the compound `O=C(Nc1ccc(OC(F)(F)F)c(F)c1)NC1CCN(C(=O)[C@@H]2CCOC2)CC1`, the half-life is 228 ± 36 min.

As for `O=C(Nc1ccc(OC(F)(F)F)c(F)c1)NC1CCN(C(=O)C2CCCOC2)CC1` (stereo not shown), the half-life was 222 ± 30 min.

On to `O=C(Nc1ccc(OC(F)(F)F)c(F)c1)NC1CCN(C(=O)C2CCOCC2)CC1`, for which the half-life was 372 ± 24 min.

Consider `O=C(Nc1ccc(OC(F)(F)F)c(F)c1)NC1CCN(C(=O)C2(C(F)(F)F)CC2)CC1`, for which the half-life was 174 ± 18 min.

Regarding `CC[C@H](C)C(=O)N1CCC(NC(=O)Nc2ccc(OC(F)(F)F)c(OC(F)(F)F)c2)CC1`, the half-life was 138 ± 24 min.

For `CC[C@H](C)C(=O)N1CCC(CC(=O)Nc2ccc(OC(F)(F)F)c(F)c2)CC1`, the half-life is 54 ± 6 min.

The next series in a line: Mouse PK, single oral gavage. The following applies: mouse, in vivo, po, 0.3 mg/kg, Mouse AUC, oral gavage, single dose 0.3 mg/kg, 20% PEG400 in oleic acid-rich triglyceride.
In the case of `O=C(Nc1ccc(OC(F)(F)F)cc1)NC1CCN(C(=O)C2CCOCC2)CC1`, the AUC is 5.06 µM·h.

`Cc1occc1C(=O)N1CCC(NC(=O)Nc2ccc(OC(F)(F)F)cc2)CC1` gave an AUC of 9.99 µM·h.

`O=C(Nc1ccc(C(F)(F)F)cc1)NC1CCN(C(=O)C2CCOCC2)CC1` returned an AUC of 5.26 µM·h.

For the compound `O=C(Nc1ccc(C(F)(F)F)cc1)NC1CCN(C(=O)c2ccoc2)CC1`, the exposure (AUC) is 0.794 µM·h. Compared with the last compound, the AUC is about 6.6-fold lower.

Compound `CC(C)C(=O)N1CCC(NC(=O)Nc2ccc(OC(F)(F)F)c(F)c2)CC1` showed an AUC of 4.78 µM·h.

In the case of `CC(C)C(=O)N1CCC(NC(=O)Nc2ccc(C(F)(F)F)c(F)c2)CC1`, the AUC was determined as 9.65 µM·h.

`O=C(Nc1ccc(OC(F)(F)F)c(F)c1)NC1CCN(C(=O)[C@@H]2CCOC2)CC1` displayed an exposure (AUC) of 0.0973 ± 0.0001 µM·h.

Compound `O=C(Nc1ccc(OC(F)(F)F)c(F)c1)NC1CCN(C(=O)C2CCCOC2)CC1` (stereo not shown) registered an AUC of 0.0994 ± 0.0001 µM·h.

In the case of `O=C(Nc1ccc(OC(F)(F)F)c(F)c1)NC1CCN(C(=O)C2CCOCC2)CC1`, the AUC turned out to be 0.0985 ± 0.0001 µM·h.

Compound `O=C(Nc1ccc(OC(F)(F)F)c(F)c1)NC1CCN(C(=O)C2(C(F)(F)F)CC2)CC1` gave an AUC of 0.0997 ± 0.0001 µM·h.

Consider `CC[C@H](C)C(=O)N1CCC(NC(=O)Nc2ccc(OC(F)(F)F)c(OC(F)(F)F)c2)CC1`, for which the AUC was at least 0.0999 µM·h.

Consider `CC[C@H](C)C(=O)N1CCC(CC(=O)Nc2ccc(OC(F)(F)F)c(F)c2)CC1`, for which the AUC was 0.0995 ± 0.0001 µM·h.

Still in this series, the particulars now being: mouse, in vivo, po, 0.3 mg/kg, Mouse Cmax, oral gavage, single dose 0.3 mg/kg.
In the case of `O=C(Nc1ccc(OC(F)(F)F)cc1)NC1CCN(C(=O)C2CCOCC2)CC1`, the peak level (Cmax) was 460 nM.

The compound `Cc1occc1C(=O)N1CCC(NC(=O)Nc2ccc(OC(F)(F)F)cc2)CC1` yielded a Cmax of 409 nM.

As to `O=C(Nc1ccc(C(F)(F)F)cc1)NC1CCN(C(=O)C2CCOCC2)CC1`, the concentration peaked (Cmax) at 376 nM. This Cmax and that of the compound before are within 1.5-fold of each other.

In turn, `O=C(Nc1ccc(C(F)(F)F)cc1)NC1CCN(C(=O)c2ccoc2)CC1` showed a peak concentration (Cmax) of 28 nM. Compared with the last compound, the Cmax is about 13-fold lower.

Regarding `CC(C)C(=O)N1CCC(NC(=O)Nc2ccc(OC(F)(F)F)c(F)c2)CC1`, the concentration peaked (Cmax) at 162 nM.

On to `CC(C)C(=O)N1CCC(NC(=O)Nc2ccc(C(F)(F)F)c(F)c2)CC1`, for which the Cmax amounted to 518 nM. Against the preceding compound, the Cmax is about 3.2-fold higher.

`O=C(Nc1ccc(OC(F)(F)F)c(F)c1)NC1CCN(C(=O)[C@@H]2CCOC2)CC1` had a Cmax of 2550 nM.

`O=C(Nc1ccc(OC(F)(F)F)c(F)c1)NC1CCN(C(=O)C2CCCOC2)CC1` (stereo not shown) registered a Cmax of 24700 nM.

Still in this series, the particulars now being: mouse, in vivo, po, 0.3 mg/kg, Mouse T1/2, oral gavage, single dose 0.3 mg/kg.
The compound `O=C(Nc1ccc(OC(F)(F)F)cc1)NC1CCN(C(=O)C2CCOCC2)CC1` had a half-life of 168 min.

`Cc1occc1C(=O)N1CCC(NC(=O)Nc2ccc(OC(F)(F)F)cc2)CC1` showed a half-life of 372 min.

As for `O=C(Nc1ccc(C(F)(F)F)cc1)NC1CCN(C(=O)C2CCOCC2)CC1`, the half-life is 216 min.

`O=C(Nc1ccc(C(F)(F)F)cc1)NC1CCN(C(=O)c2ccoc2)CC1` had a half-life of 252 min.

Regarding `CC(C)C(=O)N1CCC(NC(=O)Nc2ccc(OC(F)(F)F)c(F)c2)CC1`, the half-life is 288 min.

`CC(C)C(=O)N1CCC(NC(=O)Nc2ccc(C(F)(F)F)c(F)c2)CC1` gave a half-life of 372 min.

In the case of `O=C(Nc1ccc(OC(F)(F)F)c(F)c1)NC1CCN(C(=O)[C@@H]2CCOC2)CC1`, the half-life was 10400 min.

Take `O=C(Nc1ccc(OC(F)(F)F)c(F)c1)NC1CCN(C(=O)C2CCCOC2)CC1` (stereo not shown): the half-life was 62800 min.

Still in this series, the particulars now being: mouse, in vivo, po, 0.3 mg/kg, Mouse Tmax, oral gavage, single dose 0.3 mg/kg.
Turning to `O=C(Nc1ccc(OC(F)(F)F)cc1)NC1CCN(C(=O)C2CCOCC2)CC1`, the Tmax was 4.1 h.

On to `Cc1occc1C(=O)N1CCC(NC(=O)Nc2ccc(OC(F)(F)F)cc2)CC1`, for which the Tmax stood at 9 h.

As for `O=C(Nc1ccc(C(F)(F)F)cc1)NC1CCN(C(=O)C2CCOCC2)CC1`, the time of peak concentration (Tmax) came out at 5.2 h.

`O=C(Nc1ccc(C(F)(F)F)cc1)NC1CCN(C(=O)c2ccoc2)CC1`: the Tmax was found to be 7.3 h.

As to `CC(C)C(=O)N1CCC(NC(=O)Nc2ccc(OC(F)(F)F)c(F)c2)CC1`, the Tmax worked out at 5.9 h.

As for `CC(C)C(=O)N1CCC(NC(=O)Nc2ccc(C(F)(F)F)c(F)c2)CC1`, the Tmax was 7.9 h.

Regarding `O=C(Nc1ccc(OC(F)(F)F)c(F)c1)NC1CCN(C(=O)[C@@H]2CCOC2)CC1`, the Tmax amounted to 3.7 h.

`O=C(Nc1ccc(OC(F)(F)F)c(F)c1)NC1CCN(C(=O)C2CCCOC2)CC1` (stereo not shown): the time to peak (Tmax) was 6 h.

One may read the Cmax as the maximum level reached in the sampled fluid or tissue. A word on the Tmax: it is the time from dosing to the highest level. One may read the AUC as concentration integrated over time. Read a low AUC as low exposure.
